Test results published in US10752584B2 (EMORY UNIVERSITY, priority 2016, dated 2020).

What was measured:
Format in all cases: cell-based
[1] = Cellular toxicity assay in Vero cells; details: African green monkey, read-out: Cytotoxicity
Method in brief: (§1)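 Toxicity assessed in Vero, human PBM, CEM, MT-2 and HepG2 cells, with cycloheximide as positive control and solvent-treated cells as negative control. Cytotoxicity IC50 derived from concentration-response curves by the median effective method.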

[2] = test system: mitochondrial DNA (COXII gene) in HepG2 cells; assay: Mitochondrial toxicity assay in HepG2 cells: mitochondrial DNA; details: for MtDNA (% of control): human, 14 day
[3] = test system: mitochondrial DNA (COXII gene) in HepG2 cells; assay: as above
Excerpt: A real-time PCR assay to accurately quantify mitochondrial DNA content has been developed (see Stuyver L J, Lostia S, Adams M, Mathew J S, Pai B S, Grier J, Tharnish P M, Choi Y, Chong Y, Choo H, Chu C K, Otto M J, Schinazi R F. Antiviral activities and cellular toxicities of modified 2′,3′-dideoxy-2′,3′-didehydrocytidine analogs. Antimicrob. Agents Chemother. 2002; 46: 3854-60). This assay was used in all studies described in this application that determine the effect of compounds on mitochondrial DNA content. In this assay, low-passage-number HepG2 cells were seeded at 5,000 cells/well in collagen-coated 96-well plates. Test compounds were added to the medium to obtain final concentrations of 0 μM, 0.1 μM, 10 μM and 100 μM. On culture day 7, cellular nucleic acids were prepared by using commercially available columns (RNeasy 96 kit; Qiagen). […] The mitochondrial cytochrome c oxidase subunit II (COXII) gene and the β-actin or rRNA gene were amplified from 5 μl of the eluted nucleic acids using a multiplex Q-PCR protocol with suitable primers and probes for both target and reference amplifications. For COXII the following sense, probe and antisense primers were used, respectively: 5′-TGCCCGCCATCATCCTA-3′, 5′-tetrachloro-6-carboxyfluorescein-[…]-TAMRA-3′ and 5′-[…]-3′. For exon 3 of the β-actin gene (GenBank accession number E01094) the sense, probe, and antisense primers are 5′-GCGCGGCTACAGCTTCA-3′, 5′-6-[…]-3′ and 5′-[…]-3′, respectively. The primers and probes for the rRNA gene are commercially available from Applied Biosystems. Since equal amplification efficiencies are obtained for all genes, the comparative CT method was used to investigate potential inhibition of mitochondrial DNA synthesis. The comparative CT method uses arithmetic formulas in which the amount of target (COXII gene) is normalized to the amount of an endogenous reference (the β-actin or rRNA gene) and is relative to a calibrator (a control with no drug at day 7). The arithmetic formula for this approach is given by 2−ΔΔCT, where ΔΔCT is (CT for average target test sample CT for target control)−(CT for average reference test−CT for reference control) (see Johnson M R, K Wang, J B Smith, M J Heslin, R B Diasio. Quantitation of dihydropyrimidine dehydrogenase expression by real-time reverse transcription polymerase chain reaction. Anal. Biochem. 2000; 278:175-184). A decrease in mitochondrial DNA content in cells grown in the presence of drug indicated mitochondrial toxicity.
(§2) The effect of compounds 7 and 9 on the levels of mitochondrial and nuclear DNA, and lactic acid production was evaluated in HepG2 cells (14-day assay), and the data is tabulated below in Table 2: […]

HepG2 cells = assay: Lactic acid production in HepG2 cells; details: 14-day assay
Protocol: To measure the effects of the compounds on lactic acid production, HepG2 cells from a stock culture were diluted and plated in 12-well culture plates at 2.5×10^4 cells per well. Various concentrations (0 μM, 0.1 μM, 1 μM, 10 μM and 100 μM) of compound were added, and the cultures were incubated at 37° C. in a humidified 5% CO2 atmosphere for 4 days. At day 4, the number of cells in each well was determined and the culture medium collected. The culture medium was then filtered, and the lactic acid content in the medium was determined using a colorimetric lactic acid assay (Sigma-Aldrich). Since lactic acid product can be considered a marker for impaired mitochondrial function, elevated levels of lactic acid production detected in cells grown in the presence of test compounds would indicate a drug-induced cytotoxic effect.
as §2

wild type HBV = assay: Anti-HBV assay in AD-38 cell line; details: Hepatitis B virus, AD-38 cells, HBV in culture supernatant
[4] = Cellular toxicity assay in human PBM cells; details: human, human PBM cells, read-out: Cytotoxicity
Method in brief: as §1

[5] = Homo sapiens, HepG2, 336 h, read-out: % inhibition MtDNA

C#CCNC(=O)C(=O)c1c(C)c(C(=O)Nc2ccc(F)c(F)c2)n(C)c1C [Compound 7a, 4-[(Propargylamino)(oxo)acetyl]-N-(3,4-difluorophenyl)-1,3,5-trimethyl-1H-pyrrole-2-carboxamide]
CC50 [1]: > 90000 nM | inhibition at 25 µM [2, 5]: < 1% | inhibition at 50 µM [2, 5]: 17.7% | MtDNA (% of control) ([2]; 25 μM): 91.8 (80.2-105) % of control | MtDNA (% of control) ([2]; 50 μM): 94.6 (73.8-121) % of control | inhibition at 10 µM [3, 5]: < 1% | IC50 ([3]; Homo sapiens, HepG2, 336 h, read-out: IC50 MtDNA): > 50000 nM | MtDNA (% of control) ([3]; human, 14 day, 10 μM): 110 (100-121) % of control | Lactic acid production (% of control) (HepG2 cells; 10 μM): 103 ± 32.0 % of control | Lactic acid production (% of control) (HepG2 cells; 25 μM): 106 ± 19.5 % of control | Lactic acid production (% of control) (HepG2 cells; 50 μM): 193 ± 12.6 % of control | EC50 (wild type HBV; read-out: Anti-HBV activity EC50): 1 to 9 nM | EC90 (wild type HBV; read-out: Anti-HBV activity EC90): 10 to 90 nM | CC50 [4]: > 100000 nM
